Data as given in article PMC9645344, “Serotonin-releasing agents with reduced off-target effects” (Molecular Psychiatry, 2022).

Tests used:
human DAT = target: T1, human DAT (Homo sapiens, UniProt Q01959); test: DAT uptake inhibition assay in HEK293 cells ([3H]MPP+); type: cell-based
T1 construct: expressed in transfected cells
Procedure: Human embryonic kidney 293 (HEK293) cells stably expressing the human isoforms of either DAT or SERT were maintained in Dulbecco’s Modified Eagle Medium (DMEM), supplemented with 10% fetal calf serum at a subconfluent state in humidified atmosphere (5% CO2, 37 °C).
Uptake inhibition assays were performed as described earlier. Briefly, HEK293 cells stably expressing human SERT or DAT were seeded onto poly- D-lysine (PDL) coated 96-well plates (40,000 cells well^−1) the day before an experiment. Prior to the uptake inhibition assay, DMEM was replaced with Krebs-HEPES buffer (KHB, 25 mM HEPES, 120 mM NaCl, 5 mM KCl, 1.2 mM CaCl2, 1.2 mM MgSO4, and 5 mM D-glucose, pH 7.3) and the cells were preincubated with test drugs for 5 min at room temperature. Uptake assays were initiated by adding 20 nM [^3H]MPP^+ to DAT cells or 100 nM [^3H]5-HT to SERT cells. After 180 s (DAT) or 60 s (SERT), the tritiated substrate was removed by aspiration. Cells were washed once with ice-cold KHB, then lysed in 1% sodium dodecyl sulfate (SDS) and subjected to liquid scintillation counting to quantify tritium accumulated in each sample. Non-specific uptake was determined in the presence of mazindol (1 µM) for DAT or paroxetine (1 µM) for SERT and subtracted throughout.

extracellular DA = tested on: extracellular DA; design: method as in PMID 23178523; conditions: racemic; cited from earlier work

T1 sequence (Q01959 whole entry): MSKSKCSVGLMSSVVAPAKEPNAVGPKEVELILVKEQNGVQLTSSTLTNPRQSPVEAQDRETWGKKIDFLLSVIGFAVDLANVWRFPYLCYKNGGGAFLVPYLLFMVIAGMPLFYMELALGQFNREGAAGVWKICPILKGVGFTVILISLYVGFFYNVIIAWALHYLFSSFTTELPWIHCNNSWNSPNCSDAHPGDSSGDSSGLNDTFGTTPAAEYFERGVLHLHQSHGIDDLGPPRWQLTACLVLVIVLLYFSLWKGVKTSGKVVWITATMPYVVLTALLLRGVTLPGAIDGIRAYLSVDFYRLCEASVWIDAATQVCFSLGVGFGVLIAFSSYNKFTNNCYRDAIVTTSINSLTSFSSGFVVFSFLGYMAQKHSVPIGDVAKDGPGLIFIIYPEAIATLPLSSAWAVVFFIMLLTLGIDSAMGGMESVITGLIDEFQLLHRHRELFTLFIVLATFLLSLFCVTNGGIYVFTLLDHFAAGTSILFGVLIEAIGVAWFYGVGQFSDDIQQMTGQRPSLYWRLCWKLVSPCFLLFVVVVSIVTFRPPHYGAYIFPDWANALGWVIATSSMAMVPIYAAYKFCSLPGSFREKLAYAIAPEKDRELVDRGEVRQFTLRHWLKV

CNC(C)C(=O)c1ccc(C(F)(F)F)cc1 (centres unmarked) [4-TFMMC, 4-trifluoromethyl-N-methylcathinone]
IC50 (human DAT): > 100 µM | extracellular DA (extracellular DA): did not affect extracellular DA
